pEC50: −log10 of the molar value. The source made the active and inactive calls. How the calls were made is not given here.
Each compound was assayed against G-protein coupled receptor 151 (Homo sapiens) (UniProt Q8TDV0) (assay: GPR151 activator potency, dose response, cell-based (AID 1508610)). Details: cell-based GPR151 activation reporter.
Sequence of G-protein coupled receptor 151 (Homo sapiens) (Q8TDV0 whole entry, looked up): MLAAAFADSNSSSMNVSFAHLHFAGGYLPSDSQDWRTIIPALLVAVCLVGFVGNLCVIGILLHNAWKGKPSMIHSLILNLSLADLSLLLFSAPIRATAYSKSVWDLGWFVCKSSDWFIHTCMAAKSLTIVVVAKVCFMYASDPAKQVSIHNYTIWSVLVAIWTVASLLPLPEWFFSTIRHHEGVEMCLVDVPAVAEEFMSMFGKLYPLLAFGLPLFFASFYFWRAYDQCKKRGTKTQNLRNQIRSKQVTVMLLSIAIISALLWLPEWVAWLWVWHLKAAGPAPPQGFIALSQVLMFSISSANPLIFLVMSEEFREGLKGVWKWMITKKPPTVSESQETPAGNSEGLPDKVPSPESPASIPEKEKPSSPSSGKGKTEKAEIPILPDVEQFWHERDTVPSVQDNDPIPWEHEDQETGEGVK
`CC(NC(=O)c1ccco1)c1nnc2n1CCN(Cc1cccc(F)c1)CC2` (centres undefined) was tested, and the EC50 was > 28 µM (inactive).
`CN(C)c1cccc2c(S(=O)(=O)Nc3nccnc3-c3ccc(C=O)cc3)cccc12` was tested, and the EC50 was > 28 µM (inactive).
For `O=C1NC(=S)S/C1=C\c1ccc(C(=O)O)cc1`, the EC50 was > 29.6 µM (inactive).
`N#C/C(=C\c1cc(Cl)ccc1O)c1nc2ccccc2[nH]1` was tested, and the EC50 was > 28 µM (inactive).
With `COc1ccc(C(=O)Nc2cccc(C(=O)N3CCCC3)c2)cc1` the EC50 was > 28 µM (inactive).
In the case of `O=C1/C(=C\c2ccncc2)SC(=S)N1Cc1ccccc1`, the EC50 was “inactive”.
For `O=C(Nc1nc2ccccc2[nH]1)c1ccccc1Cl`, the EC50 was > 28.9 µM (inactive).
With `Cc1ccn(CCC(=O)NCC2Cc3cc(-c4cnccn4)cc(Cl)c3O2)n1` (centres undefined) the EC50 was > 28 µM (inactive).
With `CC[C@@H](C(=O)C(C)[C@@H](O)[C@H](C)CCc1ccc(C)c(O)c1C(=O)O)C1OC(CC)(C2CC[C@](O)(CC)[C@H](C)O2)C[C@@H]1C` (some centres undefined) the EC50 was “inactive”.
In the case of `C[C@H]1NC(=O)[C@H]2CN(C(=O)NCc3ccccc3)CCN2C1=O`, the EC50 was > 28 µM (inactive).
In the case of `COc1cccc(-c2nnc3n2N=C(c2cccc([N+](=O)[O-])c2)CS3)c1`, the EC50 was > 28 µM (inactive).
`C=CCN1/C(=C\C=C2\C=Nc3ccc(Br)cc32)C=Cc2ccc(C)cc21` was tested, and the EC50 was > 21.9 µM (inactive).
With `O=C1c2ccccc2C(Nc2ccc(Cl)cc2)N1c1cccnc1` (centres undefined) the EC50 was > 28 µM (inactive).
In the case of `Cc1cc(C)c(C#N)c(Oc2cccc(N)c2)n1`, the EC50 was > 28 µM (inactive).
With `Cc1nn(-c2ccc(Nc3ccc(NC(=O)c4cccc(F)c4)cc3)nn2)c(C)c1C` the EC50 was “inactive”.
In the case of `COc1ccc(-c2ccc(C(=O)Nc3ccc(NC(C)=O)cc3)s2)cc1`, the EC50 was > 26.6 µM (inactive).
`Cn1c(/C=C/c2ccccc2)nc2ccccc21` was tested, and the EC50 was > 37 µM (inactive).
In the case of `COc1cc([N+](=O)[O-])ccc1NC(=O)Nc1ccc(Cl)cc1F`, the EC50 was > 28 µM (inactive).
In the case of `O=C1CS/C(=C\c2nc3ccccc3s2)N1`, the EC50 was > 31.6 µM (inactive).
With `O=C(N1CCN(Cc2ccccc2)CC1)C(Cl)(Cl)Cl` the EC50 was > 28 µM (inactive).
For `O=C(Nc1ncc([N+](=O)[O-])s1)c1ccccc1F`, the EC50 was > 34 µM (inactive).
`O=C(NCCO)c1ccc(-c2ccc(N3CCOCC3)nc2)s1` was tested, and the EC50 was > 27 µM (inactive).
With `Cn1c(=O)c2c(nc(N3CCCCCC3)n2CCc2ccccc2)n(C)c1=O` the EC50 was > 27.9 µM (inactive).
For `CCOC(=O)c1cnc2c(OC)cccc2c1NC1CCCCCC1`, the EC50 was “inactive”.
`COc1cccc(-c2ccc(SCC(=O)Nc3ccc4c(c3)OCCO4)nn2)c1` was tested, and the EC50 was > 28.7 µM (inactive).
`CCC[n+]1c(/C=C2\Sc3ccccc3N2CC)ccc2ccccc21` was tested, and the EC50 was > 24.5 µM (inactive).
In the case of `N#CC1=C(N)Oc2n[nH]c(C34CC5CC(CC(C5)C3)C4)c2C1c1cccnc1` (centres undefined), the EC50 was > 27 µM (inactive).
With `NC(=O)c1ccc(-c2ccc(N3CCOCC3)nc2)s1` the EC50 was > 25.9 µM (inactive).
In the case of `O=C(NC1(C(F)(F)F)NC(=O)N(c2ccc(F)cc2)C1=O)c1ccncc1` (centres undefined), the EC50 was > 28 µM (inactive).
In the case of `CCN(CC)C(=O)Cn1cnc2sc(C(=O)Nc3cc(C)ccc3OC)c(C)c2c1=O`, the EC50 was > 25.7 µM (inactive).
`Cc1cccc(-c2cnc(C)nc2C2CCCN(C(=O)CN(C)C)C2)c1` (centres undefined) was tested, and the EC50 was > 28 µM (inactive).
For `COc1ccccc1OCCCN1C(=O)C(=O)c2cc(Br)cc(C)c21`, the EC50 was > 28 µM (inactive).
For `O=C(Nc1ccc(Oc2cccc(Oc3ccc(NC(=O)c4ccccc4F)cc3)c2)cc1)c1ccccc1F`, the EC50 was > 14.8 µM (inactive).
With `NP(=O)(Oc1ccc(Cl)cc1)Oc1ccc(Cl)cc1` the EC50 was > 28.2 µM (inactive).
With `O=C(c1cccs1)N1CCN=C1SCc1cccc([N+](=O)[O-])c1` the EC50 was > 28 µM (inactive).
`O=C1C2C3C=CC(C3)C2C(=O)N1Nc1c(Cl)cc(Cl)cc1Cl` (centres undefined) was tested, and the EC50 was > 28 µM (inactive).
For `COc1cc(Nc2cc(-c3ccc(C(N)=O)cc3)nc(N)n2)cc(OC)c1OC`, the EC50 was > 25.6 µM (inactive).
`Cc1ccc(-c2cnn(-c3ccc(C(=O)O)cc3)c2)cc1` was tested, and the EC50 was > 28 µM (inactive).
`Cc1cn2c(=O)c(C(=O)NOCc3cccc(C(F)(F)F)c3)cnc2s1` was tested, and the EC50 was > 28 µM (inactive).
With `Cc1ccc(Oc2nc3ccccn3c(=O)c2/C=C(\C#N)C(N)=O)c(C)c1` the EC50 was > 28 µM (inactive).
`COc1ccc(N=C2SC(CC(=O)Nc3ccc(OC)cc3OC)C(=O)N2C)cc1` (centres undefined) showed a pEC50 of 8.61.
For `CCN(CC)C(=O)c1cn(CCC#N)nc1-c1ccc(OC)c([N+](=O)[O-])c1`, the EC50 was > 28 µM (inactive).
In the case of `Cc1nccc2[nH]c(=O)c(C(=O)NC3CCN(Cc4ccccc4)CC3)cc12`, the EC50 was > 28 µM (inactive).
For `Cc1cc(-n2c(SCC(=O)NCc3ccco3)nc3n[nH]c(C)c3c2=N)ccc1Cl`, the EC50 was > 24.4 µM (inactive).
`Cn1cccc1C(=O)OCC(=O)NC(=O)NCc1ccccc1` was tested, and the EC50 was > 28.4 µM (inactive).
`COC(=O)c1c(NC(=O)c2cc(-c3ccc(CC(C)C)cc3)nc3ccccc23)sc(C)c1-c1ccccc1` was tested, and the EC50 was > 23.4 µM (inactive).
With `COc1cccc(NC(=O)c2cc(C3CC3)[nH]n2)c1` the EC50 was > 28 µM (inactive).
For `COc1ccc(CCN2C(=O)c3ccc(Oc4ccc(Nc5ncnc6ccccc56)cc4)cc3C2=O)cc1OC`, the pEC50 was 5.62.
With `CCCOc1ccc(NC(=O)C2CC(=O)N(CC)C(=Nc3ccc(C)c(C)c3)S2)cc1` (centres undefined) the EC50 was > 26.4 µM (inactive).
With `O=C(COc1ccccc1Cl)Nc1nccs1` the EC50 was > 39.1 µM (inactive).
`COc1ncc(-c2cncc(-c3cccc(O)c3)n2)c(OC)n1` was tested, and the EC50 was > 28 µM (inactive).
With `O=C(COc1ccc(C(=O)NCCc2ccccc2)cc1)Nc1ccccc1F` the EC50 was > 28 µM (inactive).
With `Cc1cc(Br)ccc1NC(=O)c1ccc(C#N)cc1F` the EC50 was > 28 µM (inactive).
In the case of `Cc1n[nH]c(C)c1S(=O)(=O)NCc1ccc(F)cc1`, the EC50 was > 28 µM (inactive).
In the case of `O=Cc1cccc(OCc2ccc(C(=O)O)cc2)c1`, the EC50 was > 28 µM (inactive).
With `CCC(C(=O)OC)n1cnc2scc(-c3cccc([N+](=O)[O-])c3)c2c1=O` (centres undefined) the EC50 was > 28 µM (inactive).
`CCC(Sc1nc(NC2CCCCC2)c2ccccc2n1)C(=O)Nc1ccc2c(c1)OCO2` (centres undefined) was tested, and the EC50 was > 20.6 µM (inactive).
In the case of `C[C@H](O)[C@H]1NC(=O)[C@@H]2C[C@H](NCc3cccc(F)c3)CN2C1=O`, the EC50 was > 28 µM (inactive).
`O=C(Nc1nc2ccccc2s1)c1ccccc1F` was tested, and the EC50 was > 31.9 µM (inactive).
`COc1ccc(C2C=C(c3ccc(Cl)cc3)Nc3nc(CCCO)nn32)cc1` (centres undefined) was tested, and the EC50 was “inactive”.
In the case of `Cc1ccnc(SCc2cc(=O)c(OC(=O)c3cc(Cl)ccc3[N+](=O)[O-])co2)n1`, the EC50 was > 28.4 µM (inactive).
For `O=C(O)c1ccc(COc2cccc(CO)c2)cc1`, the EC50 was > 28 µM (inactive).
`COc1ccc(-c2ccc(C(=O)Nc3ccc(NC(C)=O)cc3)s2)cn1` was tested, and the EC50 was > 28.2 µM (inactive).
With `Cc1ccc(-n2nc3c(c2NC(=O)c2cccc(F)c2)CS(=O)C3)c(C)c1` (centres undefined) the EC50 was > 27.8 µM (inactive).
For `Clc1nc(NCc2ccccc2)c2ncn(-c3ccccc3)c2n1`, the EC50 was > 28.1 µM (inactive).
`CC1(C)Cc2c(C#N)c(N3CCCC3)nc(-c3ccco3)c2CO1` was tested, and the EC50 was > 28 µM (inactive).
For `CCCCCCOc1ccc(C(=O)O)cc1OC`, the EC50 was > 31.1 µM (inactive).
For `O=C(CCCOc1ccccc1)NNC(=O)c1ccccc1`, the EC50 was > 30.1 µM (inactive).
With `Cc1cc2nc(-c3ccc[nH]c3=O)[nH]c2cc1C` the EC50 was > 28.1 µM (inactive).
In the case of `CCOC(=O)c1c(NC(=O)C(C)Sc2cn(C)c3ccccc23)sc2c1CCCCC2` (centres undefined), the EC50 was “inactive”.
With `CCC(NS(=O)(=O)c1ccc(Cl)c([N+](=O)[O-])c1)C12CC3CC(CC(C3)C1)C2` (centres undefined) the EC50 was > 26.9 µM (inactive).
With `O=C(O)c1cccc(COc2ccc(CO)cc2Cl)c1` the EC50 was > 28 µM (inactive).
With `COc1ccccc1CN[C@H]1C[C@H]2C(=O)N[C@@H](CC(C)C)C(=O)N2C1` the EC50 was > 28 µM (inactive).
In the case of `CCN=C1SC(CC(=O)Nc2sc(C)c(C)c2C(=O)OC)C(=O)N1CC` (centres undefined), the EC50 was > 28.2 µM (inactive).
With `Cc1cccc(N2CCN(C(=O)c3ccc(S(=O)(=O)c4ccc(F)cc4)c([N+](=O)[O-])c3)C(C)C2)c1` (centres undefined) the EC50 was > 23.3 µM (inactive).
`COCCn1c(C)cc(C(=O)COC(=O)c2cccc(O)c2)c1C` was tested, and the EC50 was > 30.4 µM (inactive).
`COc1cc(C2CC(=O)c3c([nH]c(C(=O)OCCSC)c3C)C2)cc(OC)c1OC` (centres undefined) gave a pEC50 of 8.85.
In the case of `COc1ccc(NC(=O)CCC(=O)Oc2ccc(C)cc2)cc1`, the EC50 was > 28 µM (inactive).
`CCCN1C(=O)C[n+]2ccccc2C1C(=O)Nc1ccccc1C` (centres undefined) was tested, and the EC50 was > 28 µM (inactive).
`CCCCCCCCCCCCCCCC(=O)SCCOP(=O)(O)OCC[N+](C)(C)C` was tested, and the EC50 was > 11.2 µM (inactive).
`CC(C)NC(=O)CSc1nnc(-c2cccnc2)n1CCc1ccccc1` was tested, and the EC50 was > 28 µM (inactive).
For `CN1C(=O)C(=Cc2nc3ccccc3c(=O)n2-c2ccc([N+](=O)[O-])cc2)c2cc(Br)ccc21`, the EC50 was > 19.1 µM (inactive).
With `Clc1ccc(-c2nc(-c3ccccn3)no2)c(Cl)c1` the EC50 was > 29.7 µM (inactive).
`COc1ccc(S(=O)(=O)Nc2ccc(F)c(F)c2)cc1C` was tested, and the EC50 was > 28 µM (inactive).
In the case of `O=C(O)c1cccc(COc2ccc(CO)cc2Br)c1`, the EC50 was > 28 µM (inactive).
`CON(C)C(=O)c1ccc(OCc2ccnc(Cl)c2)cc1` was tested, and the EC50 was > 28 µM (inactive).
`O=C(NCc1ccc(F)cc1)C(=O)Nc1cccc(Cl)c1` was tested, and the EC50 was > 28 µM (inactive).
`COC(=O)C(NC(=O)c1ccc(Br)cc1)c1ccccc1` (centres undefined) was tested, and the EC50 was > 28 µM (inactive).
For `Cc1ccc2nc(-c3ccccc3)[nH]c2c1`, the EC50 was > 38.4 µM (inactive).
With `Cc1nn(Cc2ccc(F)cc2)c(C)c1N` the EC50 was > 28 µM (inactive).
`COc1ccc(/C=N/NC(=O)COc2cccc(C)c2)cc1O` was tested, and the EC50 was > 28 µM (inactive).
`Cc1ccc(NC(=O)CCNc2c(N3CCCC3)c(=O)c2=O)cc1Cl` was tested, and the EC50 was > 28 µM (inactive).
For `CCOc1ccc(-c2csc(/C(C#N)=C/c3ccccc3OCC)n2)cc1`, the EC50 was > 25.5 µM (inactive).
For `CC(C)c1ccc(Cn2ccc3c4c(N)nc(NC5CC5)nc4ccc32)cc1`, the pEC50 was 5.41.
For `COc1ccc(N2C(=O)NC3CC2(C)Oc2c(OC)cccc23)c(OC)c1` (centres undefined), the EC50 was > 28.7 µM (inactive).
With `COc1cc(N)c(Cl)cc1C(=O)OCCOc1ccc(Br)cc1` the EC50 was > 30.8 µM (inactive).
`COc1ccc(-c2cnn(-c3ccc(C(=O)O)cc3)c2)cc1` was tested, and the EC50 was > 28 µM (inactive).
With `CCCCCCCC(=O)N/N=C/c1ccccc1OC` the EC50 was > 28 µM (inactive).
In the case of `Cc1ccn2cc(-c3ccc(F)cc3)nc2c1`, the EC50 was > 30.9 µM (inactive).
